target: T1, sodium-proton exchanger of subtype 3 (NHE3) (Homo sapiens, UniProt P48764); test: Recovery of intracellular pH (pHi) after acidification in LAP1 cells stably expressing NHE3 (BCECF fluorescence, FLIPR); format: cell-based; details: Activity range (inhibitory effect on NHE3), LAP1 cells stably expressing NHE3; pH recovery after acidification; range 1 is % inhibition at 10 μM
T1 construct: expressed in transfected cells
T1 sequence (P48764 26-834): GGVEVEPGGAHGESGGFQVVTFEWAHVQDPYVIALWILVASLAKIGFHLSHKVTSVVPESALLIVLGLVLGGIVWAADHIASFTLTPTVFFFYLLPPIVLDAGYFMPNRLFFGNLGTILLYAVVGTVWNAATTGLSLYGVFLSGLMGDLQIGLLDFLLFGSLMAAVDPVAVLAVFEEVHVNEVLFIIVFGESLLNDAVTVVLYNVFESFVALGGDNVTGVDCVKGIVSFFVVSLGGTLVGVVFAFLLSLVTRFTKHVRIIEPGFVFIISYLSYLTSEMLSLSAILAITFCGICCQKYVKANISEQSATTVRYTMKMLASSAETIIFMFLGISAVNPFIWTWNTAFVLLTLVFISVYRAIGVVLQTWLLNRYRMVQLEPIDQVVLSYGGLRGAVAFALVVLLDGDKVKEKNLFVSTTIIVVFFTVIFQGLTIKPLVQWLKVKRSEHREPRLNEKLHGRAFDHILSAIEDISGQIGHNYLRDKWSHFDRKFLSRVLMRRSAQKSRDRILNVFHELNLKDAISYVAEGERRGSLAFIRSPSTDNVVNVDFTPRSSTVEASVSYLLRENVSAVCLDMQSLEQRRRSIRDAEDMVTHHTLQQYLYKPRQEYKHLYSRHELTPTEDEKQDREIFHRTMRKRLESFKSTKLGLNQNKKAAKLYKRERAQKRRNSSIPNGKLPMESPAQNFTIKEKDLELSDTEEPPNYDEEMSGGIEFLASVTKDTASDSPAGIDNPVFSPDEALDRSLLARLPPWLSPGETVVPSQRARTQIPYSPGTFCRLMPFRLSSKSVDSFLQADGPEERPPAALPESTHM

| Structure (SMILES) | IC50 |
| --- | --- |
| CCN(CC)C(=O)c1ccc(O[C@H]2c3ccccc3C[C@@H]2N2CCCC2)cc1 (racemic) [Example 633, N,N-diethyl-4-(rac-trans-(1,2)-2-pyrrolidin-1-ylindan-1-yloxy)benzamide] | 1000 to 10000 nM |

same assay, conditions: LAP1 cells stably expressing NHE3; pH recovery after acidification; range 1 is % inhibition at 10 μM; read-out: Activity range (inhibitory effect on NHE3)

| IC50 | inhibition at 10 µM | Structure (SMILES) |
| --- | --- | --- |
| < 1000 nM | – | Cc1c(O[C@H]2c3cc(Cl)cc(Cl)c3C[C@@H]2N2CC[C@@H](O)C2)ccc(-n2c(C)nnc2C)c1C [Example 127, (R)-1-{trans-(1S,2S)-4,6-dichloro-1-[4-(3,5-dimethyl-[1,2,4]triazol-4-yl)-2,3-dimethylphenoxy]indan-2-yl}pyrrolidin-3-ol] |
| – | 20 to 50% | Cc1cc(C)c2cccnc2c1O[C@H]1c2ccccc2CC[C@@H]1N1CCC[C@@H](N)C1 (racemic) [Example 78, (R)-1-[rac-trans-(1,2)-1-(5,7-dimethylquinolin-8-yloxy)-1,2,3,4-tetrahydronaphthalen-2-yl]piperidin-3-ylamine] |
| < 1000 nM | – | CS(=O)(=O)c1ccc(O[C@H]2c3cc(Cl)cc(Cl)c3C[C@@H]2N2CCCN(CCO)CC2)cc1 [Example 385, 2-{4-[trans-(1S,2S)-4,6-dichloro-1-(4-methanesulfonylphenoxy)indan-2-yl]-[1,4]diazepan-1-yl}-ethanol] |
| 1000 to 10000 nM | – | NC1CCN([C@@H]2Cc3ccccc3[C@H]2Oc2ccc(Br)cc2-c2cc[nH]n2)CC1 (racemic) [Example 343, 1-{rac-trans-(1,2)-1-[4-bromo-2-(1H-pyrazol-3-yl)phenoxy]indan-2-yl}piperidin-4-ylamine] |
| < 1000 nM | – | CS(=O)(=O)c1ccc(O[C@H]2c3cc(Cl)cc(Cl)c3C[C@@H]2N2CCC[C@@H](NCC#N)C2)cc1 [Example 225, {(R)-1-[trans-(1S,2S)-4,6-dichloro-1-(4-methanesulfonylphenoxy)indan-2-yl]piperidin-3-ylamino}acetonitrile] |
| 1000 to 10000 nM | – | O=C1CNC(=O)N1c1ccc(Cl)c(O[C@H]2c3cc(Cl)cc(Cl)c3C[C@@H]2N2CC[C@@H](O)C2)c1 [Example 433, 3-{4-chloro-3-[(1S,2S)-4,6-dichloro-2-((R)-3-hydroxypyrrolidin-1-yl)indan-1-yloxy]phenyl}imidazolidine-2,4-dione] |
| < 1000 nM | – | CN(C)CCN(C)[C@H]1Cc2c(Cl)cc(Cl)cc2[C@@H]1Oc1ccc(S(C)(=O)=O)cc1 [Example 671, N-[trans-(1S,2S)-4,6-dichloro-1-(4-methanesulfonylphenoxy)indan-2-yl]-N,N′,N′-trimethyl-ethane-1,2-diamine] |
| – | 20 to 50% | CS(=O)(=O)c1ccccc1O[C@H]1c2cc(Cl)cc(Cl)c2C[C@@H]1N1CCCC1 [Example 247, 1-[(1S,2S)-4,6-dichloro-1-(2-methanesulfonylphenoxy)indan-2-yl]pyrrolidine] |
| < 1000 nM | – | Cn1ccn(-c2ccc(O[C@H]3c4cc(Cl)cc(Cl)c4C[C@@H]3N3CC[C@@H](O)C3)c(F)c2)c1=O [Example 329, 1-{4-[trans-(1S,2S)-4,6-dichloro-2-((R)-3-hydroxypyrrolidin-1-yl)indan-1-yloxy]-3-fluorophenyl}-3-methyl-1,3-dihydroimidazol-2-one] |
| 1000 to 10000 nM | – | c1ccc2c(c1)C[C@H](N1CCCC1)[C@H]2Oc1ccc(-c2nccs2)cc1 (racemic) [Example 364, 2-[4-(rac-trans-(1,2)-2-pyrrolidin-1-ylindan-1-yloxy)phenyl]thiazole] |
| 1000 to 10000 nM | – | CC(=O)Nc1cccc(O[C@H]2c3cc(Cl)cc(Cl)c3C[C@@H]2N2CCN(C)CC2)c1 [Example 697, N-{3-[trans-(1S,2S)-4,6-dichloro-2-(4-methylpiperazin-1-yl)indan-1-yloxy]phenyl}acetamide] |
| 1000 to 10000 nM | – | N#Cc1ccc(O[C@@H]2c3ccccc3C[C@H]2N2CCC(CN)C2)cc1Cl (mixture of isomers) [Example 540, 4-[rac-trans-(1,2)-2-(3-aminomethylpyrrolidin-1-yl)indan-1-yloxy]-2-chlorobenzonitrile] |
| < 1000 nM | – | CC(=O)Nc1cccc(O[C@H]2c3ccccc3C[C@@H]2N2CCC[C@@H](NCCC(F)(F)F)C2)c1 [Example 632, N-(3-{trans-(1S,2S)-2-[(R)-3-(3,3,3-trifluoropropylamino)piperidin-1-yl]indan-1-yloxy}-phenyl)acetamide] |
| < 1000 nM | – | CC(=O)NCc1cccc(O[C@H]2c3ccccc3C[C@@H]2N2CCCC2)c1 (racemic) [Example 640, N-[3-(rac-trans-(1,2)-2-pyrrolidin-1-ylindan-1-yloxy)benzyl]acetamide] |
| – | 20 to 50% | N[C@@H]1CCCN([C@H]2CCc3ccccc3[C@@H]2Oc2ccccc2N2CCOCC2)C1 (racemic) [Example 48, (R)-1-[rac-trans-(1,2)-1-(2-morpholin-4-ylphenoxy)-1,2,3,4-tetrahydronaphthalen-2-yl]piperidin-3-ylamine] |
| < 1000 nM | – | CC1(C)NC(=O)N(c2ccc(O[C@H]3c4cc(Cl)cc(Cl)c4C[C@@H]3N3CC[C@@H](O)C3)cc2)C1=O [Example 425, 3-{4-[(1S,2S)-4,6-dichloro-2-((R)-3-hydroxypyrrolidin-1-yl)indan-1-yloxy]phenyl}-5,5-dimethylimidazolidine-2,4-dione] |
| – | 20 to 50% | N[C@@H]1CCCN([C@H]2CCc3ccccc3[C@@H]2Oc2ccccc2OC(F)(F)F)C1 (racemic) [Example 50, (R)-1-[rac-trans-(1,2)-1-(2-trifluoromethoxyphenoxy)-1,2,3,4-tetrahydronaphthalen-2-yl]piperidin-3-ylamine] |
| 1000 to 10000 nM | – | Cc1cn(-c2ccc(O[C@H]3c4cc(Cl)cc(Cl)c4C[C@@H]3N3CC[C@@H](O)C3)cc2)c(C(C)C)n1 [Example 714, (R)-1-{trans-(1S,2S)-4,6-Dichloro-1-[4-(2-isopropyl-4-methyl-imidazol-1-yl)-phenoxy]-indan-2-yl}-pyrrolidin-3-ol] |
| 1000 to 10000 nM | – | CCOc1cccc(O[C@@H]2c3ccccc3C[C@H]2N2CCC(CN)CC2)c1 (racemic) [Example 614, C-{1-[rac-trans-(1,2)-1-(3-ethoxyphenoxy)indan-2-yl]piperidin-4-yl}methylamine] |
| – | 20 to 50% | Clc1cnccc1O[C@H]1c2ccccc2C[C@@H]1CN1CCCC1 (racemic) [Example 443, 3-chloro-4-(2-pyrrolidin-1-ylmethylindan-1-yloxy)pyridine] |
| < 1000 nM | – | O=C1CCCN1c1ccc(Cl)c(O[C@H]2c3cc(Cl)cc(F)c3C[C@@H]2N2CC[C@@H](O)C2)c1 [Example 341, 1-{4-chloro-3-[(1S,2S)-6-chloro-4-fluoro-2-((R)-3-hydroxypyrrolidin-1-yl)indan-1-yloxy]phenyl}pyrrolidin-2-one] |
| – | 20 to 50% | CN1CCN([C@H]2Cc3c(Cl)cc(Cl)cc3[C@@H]2Oc2ccc(C#N)cc2F)CC1 [Example 485, 4-[(1S,2S)-4,6-dichloro-2-(4-methylpiperazin-1-yl)indan-1-yloxy]-3-fluorobenzonitrile] |
| < 1000 nM | – | CCCC1(N)CCCN([C@H]2Cc3c(Cl)cc(Cl)cc3[C@@H]2Oc2ccc(S(C)(=O)=O)cc2)C1 (stereo partly drawn) [Example 299, 1-[trans-(1S,2S)-4,6-dichloro-1-(4-methanesulfonylphenoxy)indan-2-yl]-3-propylpiperidin-3-ylamine] |
| < 1000 nM | – | CS(=O)(=O)c1ccc(O[C@H]2c3cc(Cl)cc(Cl)c3C[C@@H]2N2CC3C[C@H]2CN3)cc1 [Example 209, (S)-2-[trans-(1S,2S)-4,6-dichloro-1-(4-methanesulfonylphenoxy)indan-2-yl]-2,5-diazabicyclo[2.2.1]heptane] |
| < 1000 nM | – | CS(=O)(=O)c1ccc(O[C@H]2c3cc(Cl)cc(Cl)c3C[C@@H]2N2CCC[C@@H](N)C2)cc1 [Example 102, (R)-1-[trans-(1S,2S)-4,6-dichloro-1-(4-methanesulfonylphenoxy)indan-2-yl]piperidin-3-ylamine] |
| 1000 to 10000 nM | – | c1ccc2c(c1)C[C@@H](N1C[C@H]3CNC[C@H]3C1)[C@@H]2Oc1ccc(-n2ccnc2)cc1 (racemic) [Example 7, 2-[rac-trans-(1,2)-1-(4-imidazol-1-ylphenoxy)indan-2-yl]octahydropyrrolo[3,4-c]pyrrole] |
| – | 20 to 50% | CC(=O)Nc1cccc(OC2c3ccccc3CC2N2CC[C@@H](N3CCCC3)C2)c1 (mixture of isomers) [Example 670, N-[rac-trans-(1,2)-3-((R)-2-[1,3′]bipyrrolidinyl-1′-ylindan-] |
| 1000 to 10000 nM | – | CCc1nnc(C(C)C)n1-c1ccc(O[C@H]2c3cc(Cl)cc(F)c3C[C@@H]2N2CC[C@@H](O)C2)cc1 [Example 722, (R)-1-{trans-(1S,2S)-6-Chloro-1-[4-(3-ethyl-5-isopropyl-[1,2,4]triazol-4-yl)-phenoxy]-4-fluoro-indan-2-yl}-pyrrolidin-3-ol] |
| < 1000 nM | – | N[C@H]1CCCN([C@H]2CCc3ccccc3[C@@H]2Oc2cccc3[nH]nnc23)C1 (racemic) [Example 147, (S)-1-[rac-trans-(1,2)-1-(1H-benzotriazol-4-yloxy)-1,2,3,4-tetrahydronaphthalen-2-yl]piperidin-3-ylamine] |

Reference: patent US8822449B2, “Substituted aminoindanes and analogs thereof, and the pharmaceutical use thereof” (Sanofi, priority 2008, dated 2014)
